Measured values: patent US20160090557A1, “SUBSTRATES COMPRISING MALODOR REDUCTION COMPOSITIONS” (The Procter & Gamble Company, priority 2014, published 2016)

Columns and labels:
[1] = Blocker Index (BI), expert graders, isovaleric acid malodorous swatch; set-up: key: BI odor strength 0 (lowest, clean swatch) to 3 (highest)
Text: (§1) Blocker materials suitable for use in consumer products of the present invention are chosen for their ability to decrease malodor, while not interfering with perception of a fragrance. Material selection is done by assigning two indices to a test sample material from two reference scales in order to rank odor strengths. The two reference scales are the Fragrance Fidelity Index (FFI) scale and the Blocker Index (BI) scale. The FFI ranks the ability of the test sample material to impart a perceivable odor which could cause interference when combined with another fragrance and the BI ranks the ability of the test sample material to reduce malodor perception. The two methods for assigning the indices to a test sample on the FFI and the BI reference scales are given below.
(§2) The first step in the method for assigning a BI to a test sample material on the BI reference scale is to create the BI reference swatches. […] Fabric swatches for this test are white knit polycotton (4 inch×4 inch) swatches from EMC ordered as PC 50/50. The supplier is instructed to strip the swatches first, stripping involves washing twice with a fragrance-free detergent and rinsing three times.
The BI scale contains one clean swatch with no malodor applied. […] These solutions are pipetted to the middle of the swatches. […] After drying for 30 minutes in a vented hood, the swatches are wrapped in aluminum foil to prevent odor contamination to the treated swatch. A clean untreated swatch is also included as the lowest anchor point of reference for malodor strength on the BI scale. The BI reference scale swatches should be used within 0.5 to 12 hours and discarded after 12 hours. The swatches are used as scale anchor points when graders evaluate a test sample(s) and are assigned a Blocker Index (BI) as show in Table 12.
The perfumer/expert grader is asked to rank order swatches according to a scale between 0 and 3.
The reference swatches represent the 0, 1, 2, and 3 BIs on the BI reference scale, Table 12. The expert grader should familiarizes him/herself with the strength of the odor on the BI reference swatches by sniffing each one starting at 0 (the lowest odor strength) and ending at 3 (the highest odor strength). This should be done prior to evaluating the swatch treated with the test material.
To evaluate the BI, the test material is applied to a malodorous swatch to determine how well the test material blocks the malodor. […] After drying the malodorous swatch a known concentration of test material solution, between 1 ppm and 100 ppm is pipetted onto the malodorous swatch. […] It is sometimes necessary to evaluate several levels of the test material between about 1 and about 100 ppm to determine the BI.
At least two perfumers/expert graders are used to assign the BI to the test sample. […] The test sample swatch is assigned a BI at or between numbers on the BI in table.

[2] = Fragrance Fidelity Index (FFI), expert graders, treated fabric swatch against ethyl vanillin reference scale
Text: as §1
as §2, with “assigning an FFI” for “assigning a BI”, “to the” for “to a”, “test samples” for “test sample material”, “the FFI” for “the BI”
Pipette 13 μL of each of the three solutions into the middle of a clean swatch resulting in about a 1 cm diameter of the solution in the middle of the swatch. This will create a sensory scale of three swatches with three different odor levels based on the concentration of the solution pipetted onto the swatch. After drying for 30 minutes in a vented hood, the swatches are wrapped in aluminum foil to prevent odor contamination to the treated swatch. A clean untreated swatch is also included as the lowest anchor point of reference for odor strength on the FFI scale. The FFI reference scale swatches should be used within 0.5 to 12 hours and discarded after 12 hours. The swatches are used as scale anchor points when graders evaluate a test sample(s) and are assigned a Fragrance Fidelity Index (FFI) as show in Table 7.
The perfumer/expert panel is asked to rank order swatches according to a scale between 0 and 3.
The reference swatches represent the 0, 1, 2, and 3 FFIs on the FFI reference scale, Table 9. The expert grader should familiarize them self with the strength of the odor on the FFI reference swatches by sniffing each one starting at 0 (the lowest odor strength) and ending at 3 (the highest odor strength). This should be done prior to evaluating the test sample material treated swatch.
A clean swatch is treated with 13 μL of a known concentration of a test sample material resulting in an about 1 cm of the solution on the clean swatch. Just like the reference swatches, the test sample material swatch is dried in a vented hood for 30 minutes and then wrapped in aluminum foil to prevent contamination. […]

[3] = test material Conc 10 ppm on isovaleric acid malodorous swatch
[4] = test material Conc 50 ppm on isovaleric acid malodorous swatch

Compound	BI [1, 3]	BI [1, 4]	further results
COC(=O)OC1CC/C=C\CCC1 (stereo not drawn) [Material 1139]	2.0	2.7	
CCCCCCCCCCCCCCCC(=O)OC [Material 109]	2.0		
C=C1CCC2OC2(C)CCC2C1CC2(C)C (stereo not drawn) [Material 1148]		2.3	
CC(=O)OCCCCCCC(C)C [Material 204]	2.0	2.7	
C=CC(C)=CCC=C(C)C [Material 524]		2.8	
CCCCCCCCCCCO [Undecanol]		2.3	
CC1(C)CCc2ccc(CCC=O)cc21 [Material 261]	1.8	1.3	
CC(CCO)CCc1ccccc1 (stereo not drawn) [Material 962]	2.3	1.7	
CCCCCCCCCCCC(=O)OCC [Material 391]		2.2	
CCOC(=O)OC1C(C)CCC(C)C1C (stereo not drawn) [Material 1005]		2.6	
CCC(=O)OC1CC2C3C=CCC3C1C2(C)C (stereo not drawn) [8,8-dimethyl-3a,4,5,6,7,7a-hexahydro-1H-4,7-methanoinden-6-yl propionate]			FFI ([2]; Conc 10 ppm): 0; FFI ([2]; Conc 50 ppm): 0; BI ([1]; Conc 10 ppm): 1.5; BI ([1]; Conc 50 ppm): 2.2
CC(C)CC(=O)O [isovaleric acid, reference compound]			BI reference swatch grade, Ave ([1]; 2 μL 0.08% isovaleric acid, graders 1-5 (Table 10)): 1.0; BI reference swatch grade, single expert grader ([1]; stripped swatch with 2 μL 0.08% isovaleric acid): 1.0; BI reference swatch grade, single expert grader ([1]; stripped swatch with 5 μL 0.08% isovaleric acid): 2.5; BI reference swatch grade, single expert grader ([1]; stripped swatch with 20 μL 0.08% isovaleric acid): 2.5
CC(C)(C)C1CCCCC1 [4-tert-butyl cyclohexane]	2.0	2.0	
O=C1CCC2CCCCC2O1 (stereo not drawn) [3,4,4a,5,6,7,8,8a-octahydrochromen-2-one]	2.0	2.0	
CC(=O)OC1CC2CC1C1CC=CC21 (stereo not drawn) [Material 281]	2.0	2.0	
CC1(C)CCc2ccc(CCC=O)cc21 [Material 261, 3-(3,3-dimethyl-2,3-dihydro-1H-inden-5-yl)propanal]			FFI ([2]; Conc 50 ppm): 0.5; BI ([1]; Conc 10 ppm): 1.5; BI ([1]; Conc 50 ppm): 2.7
CC1CCC2(C(C)C)CC(C)OC2C1 (stereo not drawn) [4,8-dimethyl-1-(methylethyl)-7-oxybiciclo [4.3.0]nonane]			FFI ([2]; Conc 50 ppm): 0.3; BI ([1]; Conc 10 ppm): 2.0; BI ([1]; Conc 50 ppm): 2.2
CCCCCCCCCCCCO [Material 174]		2.3	
CC1(C)C2CCC3(C2)C1C(=O)CCC3(C)C (stereo not drawn) [Material 1149]	1.5	2.3	
CCC(O)COC1CCCCC1C(C)(C)C (stereo not drawn) [Material 677]	2.3	2.0	
